# Tests used:
# Cav1.2/β3/α2δ = target: T1, Cav1.2/β3/α2δ (Homo sapiens, UniProt Q13936); test: Two-electrode voltage clamp of Cav1.2/β3/α2δ expressed in Xenopus oocytes (Ba2+ as charge carrier); format: cell-based; conditions: for ICa I/I0: relative current at 0 mV
# T1 construct: expressed in transfected cells; host or cells: Xenopus laevis oocytes (cRNA injection, Cav1.2:β3:α2δ 2:1:1 by weight)
# Method: Molecular Biology cRNA encoding Kv7.1 (UniProt: P51787), KCNE1 (UniProt: P15382.1), Nav1.5 (UniProt: Q14524.1), Nav β1 (UniProt: […]), Nav β3 (UniProt: […]), Cav1.2 (GenBank: CAA84346), Cav β3 (Uniprot: P54286), Cav β2 (Uniprot: P54288), and Cav α2δ (Uniprot: P13806) were transcribed using the mMessage mMachine T7 kit (Ambion). 50 ng of cRNA was injected into defolliculated Xenopus laevis oocytes (Ecocyte, Austin, TX): For Kv7.1/KCNE1 channel expression, we injected a 3:1, weight:weight (Kv7.1:KCNE1) cRNA ratio. For Nav1.5 channel expression, we injected a 2:1, weight:weight (Nav1.5:β1) cRNA ratio. For Cav1.2 channel expression, we injected a 2:1:1, weight:weight (Cav1.2:β3:α2δ) cRNA ratio. The exact stoichiometry for channel macromolecular complexes, including α -subunits and auxiliary subunits is not clear for many ion channels. For example, there have been multiple reported stoichiometries for Kv7.1:KCNE1 determined in heterologous expression systems with some groups reporting flexible stoichiometry of 4 Kv7.1: 1–4 KCNE1 and others reporting a fixed stoichiometry of 4 Kv7.1: 2 KCNE1 ([Murray et al., 2016]; [Nakajo et al., 2010]). The ratios of cRNA of α- and auxiliary subunits that we injected in Xenopus laevis oocytes are such that all α-subunits are assumed to be in complex with auxiliary subunits. This allows a more homogenous population of ion channels with auxiliary subunits. One caveat to expressing ion channels as macromolecular complexes is that there are many other auxiliary subunits that could associate with the channel α -subunit that are present in cardiomyocytes and have the potential to alter PUFA-induced effects, but that are not being co-expressed in our experiments. In this work, we are co-expressing some of the auxiliary subunits that have been primarily reported to associate with their respective α -subunits in cardiomyocytes. Following cRNA injection, cells were incubated for 72–96 hr in standard ND96 solution (96 mM NaCl, 2 mM KCl, 1 mM MgCl2, 1.8 mM CaCl2, 5 mM HEPES; pH = 7.5) containing 1 mM pyruvate at 16°C prior to electrophysiological recordings.
# Xenopus laevis oocytes were recorded in the two-electrode voltage clamp (TEVC) configuration. Recording pipettes were filled with 3 M KCl. The recording chamber was filled with ND96 (96 mM NaCl, 2 mM KCl, 1 mM MgCl2, 1.8 mM CaCl2, 5 mM HEPES; pH 7.5). For Cav1.2/β3/α2δ channel recordings, Xenopus oocytes were injected with 50 nl of 100 mM EGTA and incubated at 10°C for 30 min prior to electrophysiological recordings in order to sequester cytosolic calcium. In addition, Cav1.2/β3/α2δ channel recordings were done in Ca^2+-free solutions, using Ba^2+ as the charge carrier, to prevent calcium-dependent inactivation of Cav1.2/β3/α2δ channels. Calcium-dependent inactivation was not studied in this work, due to the presence of large calcium-activated chloride currents present in Xenopus laevis oocytes. PUFAs were obtained from Cayman Chemical (Ann Arbor, MI.) or synthesized in house (Linköping, Sweden) through methods previously described ([Bohannon et al., 2020]) and kept at −20 °C as 100 mM stock solutions in ethanol. Serial dilutions of the different PUFAs were prepared from stocks to make 0.2 μM, 0.7 μM, 2 μM, 7 μM, and 20 μM concentrations in ND96 solutions (pH = 7.5). PUFAs were perfused into the recording chamber using the Rainin Dynamax Peristaltic Pump (Model RP-1) (Rainin Instrument Co., Oakland, CA. USA).
# Electrophysiological recordings were obtained using Clampex 10.3 software (Axon, pClamp, Molecular Devices). To measure Kv7.1/KCNE1 currents we apply PUFAs as the membrane potential is stepped every 30 s from −80 mV to 0 mV for 5 s before stepping to −40 mV and back to −80 mV to ensure that the PUFA effects on the current at 0 mV reached steady state. A voltage-step protocol was used to measure the current vs. voltage (I-V) relationship before PUFA application and after the PUFA effects had reached steady state for each concentration of PUFA. […]
# Herg channels = test system: Herg channels; parameters: method as in B.H. Bentzen and H. Duff, unpublished data; conditions: up to 10 μM; heterologous systems; ref B.H. Bentzen and H. Duff, unpublished data; cited from earlier work
# Cav1.2/β2/α2δ = target: T2, Cav1.2/β2/α2δ (Homo sapiens, UniProt Q13936); test: Two-electrode voltage clamp of Cav1.2/β2/α2δ expressed in Xenopus oocytes; format: cell-based; conditions: co-expression with β2 subunit instead of β3
# T2 construct: expressed in transfected cells; host or cells: Xenopus laevis oocytes (cRNA injection; no ratio printed for the β2 combination)
# T2 sequence (Q13936 1-2138 isoform Q13936-20, other chains not shown): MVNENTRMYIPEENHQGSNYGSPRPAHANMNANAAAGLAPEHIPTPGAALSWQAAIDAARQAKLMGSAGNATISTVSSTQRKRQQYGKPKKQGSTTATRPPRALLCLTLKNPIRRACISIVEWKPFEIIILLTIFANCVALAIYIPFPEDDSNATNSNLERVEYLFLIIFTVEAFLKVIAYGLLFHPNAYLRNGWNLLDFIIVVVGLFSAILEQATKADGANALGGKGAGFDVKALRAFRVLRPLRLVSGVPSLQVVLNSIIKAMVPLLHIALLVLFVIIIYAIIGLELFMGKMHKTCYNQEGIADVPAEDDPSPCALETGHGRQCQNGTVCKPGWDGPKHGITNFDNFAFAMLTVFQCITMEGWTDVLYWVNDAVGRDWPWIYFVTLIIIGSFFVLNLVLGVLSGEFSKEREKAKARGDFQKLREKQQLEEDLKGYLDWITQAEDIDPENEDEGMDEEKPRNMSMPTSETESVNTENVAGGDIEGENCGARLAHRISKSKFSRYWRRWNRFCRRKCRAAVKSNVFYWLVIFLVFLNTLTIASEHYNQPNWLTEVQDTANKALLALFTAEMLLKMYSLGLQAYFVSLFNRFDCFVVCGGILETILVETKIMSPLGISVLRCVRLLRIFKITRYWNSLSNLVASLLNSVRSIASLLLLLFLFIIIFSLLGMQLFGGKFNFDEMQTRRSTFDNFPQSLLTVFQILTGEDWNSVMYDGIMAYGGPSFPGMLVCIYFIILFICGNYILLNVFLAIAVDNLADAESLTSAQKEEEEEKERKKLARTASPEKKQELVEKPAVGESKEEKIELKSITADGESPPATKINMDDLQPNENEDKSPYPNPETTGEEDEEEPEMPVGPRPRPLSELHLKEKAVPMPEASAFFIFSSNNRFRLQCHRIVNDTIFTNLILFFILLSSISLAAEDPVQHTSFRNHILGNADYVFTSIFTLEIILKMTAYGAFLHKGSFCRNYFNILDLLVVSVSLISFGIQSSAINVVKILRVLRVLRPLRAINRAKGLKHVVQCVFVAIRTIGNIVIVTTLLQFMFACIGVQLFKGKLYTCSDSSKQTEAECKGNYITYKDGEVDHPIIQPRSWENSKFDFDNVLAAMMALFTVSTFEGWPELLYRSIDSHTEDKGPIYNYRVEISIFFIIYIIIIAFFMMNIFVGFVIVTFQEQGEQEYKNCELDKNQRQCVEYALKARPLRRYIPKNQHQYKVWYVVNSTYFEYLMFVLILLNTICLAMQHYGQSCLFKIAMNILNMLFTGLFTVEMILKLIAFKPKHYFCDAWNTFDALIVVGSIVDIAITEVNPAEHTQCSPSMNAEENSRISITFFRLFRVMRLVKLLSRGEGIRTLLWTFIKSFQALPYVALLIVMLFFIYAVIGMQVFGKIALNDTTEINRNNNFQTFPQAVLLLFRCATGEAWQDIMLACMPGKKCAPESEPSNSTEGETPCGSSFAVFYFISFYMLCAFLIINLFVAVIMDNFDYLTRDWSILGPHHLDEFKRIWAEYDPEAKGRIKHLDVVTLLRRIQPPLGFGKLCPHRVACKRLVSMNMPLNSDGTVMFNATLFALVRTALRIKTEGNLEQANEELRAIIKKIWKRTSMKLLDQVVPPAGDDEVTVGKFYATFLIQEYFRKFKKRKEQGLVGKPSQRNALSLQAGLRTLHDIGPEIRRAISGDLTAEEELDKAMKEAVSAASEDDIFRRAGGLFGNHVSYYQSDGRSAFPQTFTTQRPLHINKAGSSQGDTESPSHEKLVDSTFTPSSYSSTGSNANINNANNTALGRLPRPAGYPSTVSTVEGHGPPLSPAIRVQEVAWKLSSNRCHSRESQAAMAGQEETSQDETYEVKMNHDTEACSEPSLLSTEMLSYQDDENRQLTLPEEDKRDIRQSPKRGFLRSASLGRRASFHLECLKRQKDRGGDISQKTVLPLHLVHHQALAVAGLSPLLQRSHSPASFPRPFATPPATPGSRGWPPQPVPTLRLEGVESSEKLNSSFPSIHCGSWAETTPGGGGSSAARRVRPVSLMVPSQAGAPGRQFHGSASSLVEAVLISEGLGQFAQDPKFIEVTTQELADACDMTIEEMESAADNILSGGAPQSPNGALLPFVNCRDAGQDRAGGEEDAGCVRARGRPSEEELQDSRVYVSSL
# T2 sequence (P13806 27-960 partner, other chains not shown): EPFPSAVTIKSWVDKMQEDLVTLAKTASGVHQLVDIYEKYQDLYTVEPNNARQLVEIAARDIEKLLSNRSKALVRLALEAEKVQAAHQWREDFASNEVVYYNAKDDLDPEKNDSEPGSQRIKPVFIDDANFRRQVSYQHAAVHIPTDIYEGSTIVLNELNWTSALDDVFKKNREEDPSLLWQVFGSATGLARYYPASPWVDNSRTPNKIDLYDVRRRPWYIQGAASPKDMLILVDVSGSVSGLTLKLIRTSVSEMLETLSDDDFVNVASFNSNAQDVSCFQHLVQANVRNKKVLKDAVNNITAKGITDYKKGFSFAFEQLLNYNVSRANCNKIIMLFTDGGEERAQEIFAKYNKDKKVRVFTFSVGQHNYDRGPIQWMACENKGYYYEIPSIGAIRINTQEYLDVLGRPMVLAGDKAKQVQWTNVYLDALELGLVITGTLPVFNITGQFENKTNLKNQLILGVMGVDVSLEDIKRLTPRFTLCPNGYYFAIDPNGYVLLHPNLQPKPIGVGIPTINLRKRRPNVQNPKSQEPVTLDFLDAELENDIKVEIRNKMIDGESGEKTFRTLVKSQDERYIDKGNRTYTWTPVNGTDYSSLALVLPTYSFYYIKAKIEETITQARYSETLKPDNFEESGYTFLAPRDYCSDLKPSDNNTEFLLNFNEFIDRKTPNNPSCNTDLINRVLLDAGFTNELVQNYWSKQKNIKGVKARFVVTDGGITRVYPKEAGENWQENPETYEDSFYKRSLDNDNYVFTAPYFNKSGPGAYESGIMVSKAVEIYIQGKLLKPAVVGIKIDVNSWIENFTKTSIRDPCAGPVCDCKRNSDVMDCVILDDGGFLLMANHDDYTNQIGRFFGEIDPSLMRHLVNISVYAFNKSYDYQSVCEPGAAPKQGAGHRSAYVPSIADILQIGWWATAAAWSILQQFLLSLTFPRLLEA
# T2 sequence (P13806 961-1106 partner, other chains not shown): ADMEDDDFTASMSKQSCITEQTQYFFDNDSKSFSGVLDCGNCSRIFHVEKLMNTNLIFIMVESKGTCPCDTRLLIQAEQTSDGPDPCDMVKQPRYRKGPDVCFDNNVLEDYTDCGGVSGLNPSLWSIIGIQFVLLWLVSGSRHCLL
# Method: Molecular Biology cRNA encoding Kv7.1 (UniProt: P51787), KCNE1 (UniProt: P15382.1), Nav1.5 (UniProt: Q14524.1), Nav β1 (UniProt: […]), Nav β3 (UniProt: […]), Cav1.2 (GenBank: CAA84346), Cav β3 (Uniprot: P54286), Cav β2 (Uniprot: P54288), and Cav α2δ (Uniprot: P13806) were transcribed using the mMessage mMachine T7 kit (Ambion). 50 ng of cRNA was injected into defolliculated Xenopus laevis oocytes (Ecocyte, Austin, TX): For Kv7.1/KCNE1 channel expression, we injected a 3:1, weight:weight (Kv7.1:KCNE1) cRNA ratio. For Nav1.5 channel expression, we injected a 2:1, weight:weight (Nav1.5:β1) cRNA ratio. For Cav1.2 channel expression, we injected a 2:1:1, weight:weight (Cav1.2:β3:α2δ) cRNA ratio. The exact stoichiometry for channel macromolecular complexes, including α -subunits and auxiliary subunits is not clear for many ion channels. For example, there have been multiple reported stoichiometries for Kv7.1:KCNE1 determined in heterologous expression systems with some groups reporting flexible stoichiometry of 4 Kv7.1: 1–4 KCNE1 and others reporting a fixed stoichiometry of 4 Kv7.1: 2 KCNE1 ([Murray et al., 2016]; [Nakajo et al., 2010]). […]
# Xenopus laevis oocytes were recorded in the two-electrode voltage clamp (TEVC) configuration. […]
# T1 sequence (Q13936 1-2138 isoform Q13936-20): as the sequence (Q13936 1-2138 isoform Q13936-20, other chains not shown) above
# T1 sequence (P54286 whole entry partner): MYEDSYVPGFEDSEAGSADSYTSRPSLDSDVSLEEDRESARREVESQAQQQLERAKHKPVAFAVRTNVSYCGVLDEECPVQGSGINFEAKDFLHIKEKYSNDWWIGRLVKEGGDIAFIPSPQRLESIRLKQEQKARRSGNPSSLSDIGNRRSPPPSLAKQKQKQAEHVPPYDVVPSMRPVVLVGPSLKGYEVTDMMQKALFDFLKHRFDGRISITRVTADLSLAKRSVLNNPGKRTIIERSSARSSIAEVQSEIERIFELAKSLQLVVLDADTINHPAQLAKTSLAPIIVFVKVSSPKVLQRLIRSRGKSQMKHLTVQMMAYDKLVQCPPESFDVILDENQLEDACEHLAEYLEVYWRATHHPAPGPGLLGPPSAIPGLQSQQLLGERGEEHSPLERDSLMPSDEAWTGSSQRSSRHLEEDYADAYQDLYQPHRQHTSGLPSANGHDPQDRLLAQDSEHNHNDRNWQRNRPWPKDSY
# T1 sequence (P13806 27-960 partner): as the sequence (P13806 27-960 partner, other chains not shown) above
# T1 sequence (P13806 961-1106 partner): as the sequence (P13806 961-1106 partner, other chains not shown) above
SMILES,Gmax/Gmax0 (Cav1.2/β3/α2δ; 0.2 μM),ΔV0.5 (voltage dependence of inactivation) (Cav1.2/β3/α2δ; 0.2 μM) [mV],ICa I/I0 (Cav1.2/β3/α2δ; 0.2 μM),Gmax/Gmax0 (Cav1.2/β3/α2δ; 0.7 μM),ΔV0.5 (voltage dependence of inactivation) (Cav1.2/β3/α2δ; 0.7 μM) [mV],ICa I/I0 (Cav1.2/β3/α2δ; 0.7 μM),Gmax/Gmax0 (Cav1.2/β3/α2δ; 2 μM),ΔV0.5 (voltage dependence of inactivation) (Cav1.2/β3/α2δ; 2 μM) [mV],ICa I/I0 (Cav1.2/β3/α2δ; 2 μM),Gmax/Gmax0 (Cav1.2/β3/α2δ; 7 μM),ΔV0.5 (voltage dependence of inactivation) (Cav1.2/β3/α2δ; 7 μM) [mV],Gmax/Gmax0 (Cav1.2/β3/α2δ; 20 μM),ΔV0.5 (voltage dependence of inactivation) (Cav1.2/β3/α2δ; 20 μM) [mV],ICa I/I0 (Cav1.2/β3/α2δ; 20 μM),effects on currents through Herg channels (Herg channels),response of Cav1.2/β2/α2δ compared with Cav1.2/β3/α2δ (Cav1.2/β2/α2δ),ICa I/I0 (Cav1.2/β3/α2δ; 7 μM),also measured
"CC/C=C\C/C=C\C/C=C\C/C=C\C/C=C\C/C=C\CCC(=O)NCC(=O)O [DHA-glycine, docosahexaenoyl glycine]",1.0 ± 0.1,6.1 ± 3.5,0.9 ± 0.1,1.1 ± 0.1,6.4 ± 4.3,1.0 ± 0.1,1.1 ± 0.1,6.1 ± 4.2,0.9 ± 0.1,1.0 ± 0.1,7.6 ± 3.1,1.0 ± 0.1,5.2 ± 4.4,0.9 ± 0.1,neither N-AT nor DHA-glycine up to 10 μM had any significant effects,,,
CCCCC/C=C\C/C=C\CCCCCCCC(=O)NCC(=O)O [Lin-glycine],1.1 ± 0.03,0.1 ± 1.7,0.9 ± 0.1,1.1 ± 0.04,-0.7 ± 1.8,0.9 ± 0.1,1.2 ± 0.1,-2.9 ± 1.4,0.9 ± 0.1,1.0 ± 0.1,−3.0 ± 1.6,1.0 ± 0.1,-3.7 ± 1.5,0.7 ± 0.1,,no differences between Cav1.2/β3/α2δ and Cav1.2/β2/α2δ,,"ΔV0.5 (voltage dependence of inactivation) (Cav1.2/β3/α2δ; 7 μM, listed as lin-glycine): -3.0 ± 1.6 mV; ICa I/I0 (Cav1.2/β3/α2δ; 7 μM, listed as lin-glycine): 0.8 ± 0.1"
CCCCC/C=C\C/C=C\CC/C=C\CCCC(=O)NCCS(=O)(=O)O [Pin-taurine],0.9 ± 0.1,2.7 ± 1.9,0.7 ± 0.1,1.0 ± 0.1,3.9 ± 1.9,0.8 ± 0.1,1.0 ± 0.1,3.7 ± 1.8,0.8 ± 0.1,0.8 ± 0.1,4.1 ± 2.2,0.6 ± 0.1,6.0 ± 4.1,0.5 ± 0.1,,,0.7 ± 0.1 (p=0.02),"ICa I/I0 (Cav1.2/β3/α2δ; 7 μM, listed as pin-taurine): 0.7 ± 0.1"
CCCCC/C=C\C/C=C\CC/C=C\CCCC(=O)NCC(=O)O [Pin-glycine],0.9 ± 0.1,-3.2 ± 3.0,0.7 ± 0.1,0.9 ± 0.1,-3.3 ± 3.4,0.8 ± 0.1,0.9 ± 0.1,-4.3 ± 4.1,0.8 ± 0.1,0.8 ± 0.1,−3.1 ± 4.2,0.7 ± 0.2,-3.4 ± 5.6,0.6 ± 0.2,,,0.8 ± 0.1 (p=0.26),"Gmax/Gmax0 (Cav1.2/β3/α2δ; 7 μM, listed as pin-glycine): 0.8 ± 0.2; ΔV0.5 (voltage dependence of inactivation) (Cav1.2/β3/α2δ; 7 μM, listed as pin-glycine): -3.1 ± 4.2 mV; ICa I/I0 (Cav1.2/β3/α2δ; 7 μM, listed as pin-glycine): 0.8 ± 0.1"
"CCCCC/C=C\C/C=C\CCCCCCCC(=O)NCCS(=O)(=O)O [Lin-taurine, Linoleoyl taurine]",1.0 ± 0.02,0.6 ± 0.5,1.0 ± 0.02,0.9 ± 0.02,0.9 ± 0.9,0.9 ± 0.1,0.7 ± 0.05,-0.3 ± 1.8,0.7 ± 0.1,0.6 ± 0.05,−1.9 ± 2.5,0.5 ± 0.04,-1.2 ± 4.4,0.5 ± 0.1,,no differences between Cav1.2/β3/α2δ and Cav1.2/β2/α2δ,0.6 ± 0.1 (p=0.01),"ΔV0.5 (voltage dependence of inactivation) (Cav1.2/β3/α2δ; 7 μM, listed as lin-taurine): -1.9 ± 2.5 mV; ICa I/I0 (Cav1.2/β3/α2δ; 7 μM, listed as lin-taurine): 0.6 ± 0.1; shift of the voltage dependence of activation (Cav1.2/β3/α2δ; 0.2-20 μM): without shifting the voltage-dependence of Cav1.2/β3/α2δ activation"
"CCCCC/C=C\C/C=C\C/C=C\C/C=C\CCCC(=O)NCCS(=O)(=O)O [N-AT, N-arachidonoyl taurine]",0.9 ± 0.02,0.4 ± 0.3,0.9 ± 0.1,0.9 ± 0.1,0.5 ± 1.0,0.9 ± 0.1,0.8 ± 0.03,0.2 ± 2.2,0.9 ± 0.1,0.7 ± 0.1,0.6 ± 2.0,0.6 ± 0.03,1.4 ± 1.7,0.7 ± 0.1,neither N-AT nor DHA-glycine up to 10 μM had any significant effects,,,

# From paper PMC7159882, “Polyunsaturated fatty acid analogues differentially affect cardiac NaV, CaV, and KV channels through unique mechanisms” (eLife, 2020)
